# Test results taken from publication PMC3260180, “FRET-Based Detection of M1 Muscarinic Acetylcholine Receptor Activation by Orthosteric and Allosteric Agonists” (PLoS ONE, 2012).
# Legend:
# M1-cam5 AChR = target: T1, M1-cam5 AChR (Mus musculus, UniProt P12657, INS361[…]); experiment: [3H]NMS competition binding in intact HEK293-M1-cam5 cell monolayers; conditions: [3H]NMS (~0.3 nM) competition, agonists 4°C for 4 h, antagonists 37°C for 45 min, mean ± s.e.m.
# T1 construct: addition of the EYFP^F46L to the C-terminus of full length M1 mAChR; expressed in transfected cells; host or cells: HEK293 cells stably expressing M1-cam5 (HEK293-M1-cam5)
# Experimental: Briefly, HEK293-M1-cam5 cells were seeded at a density of 75,000 cells/well in 24-well plates. […] […] After cell solubilization, SafeFluor scintillation fluid was added, and samples were counted on a scintillation counter.
# M1-cam5 mAChR [1] = target: T2, M1-cam5 mAChR (Mus musculus, UniProt P12657, INS361[…]); experiment: FRET measurements (FEYFP/FECFP) in HEK293-M1-cam5 cells; type: cell-based; parameters: addition of the EYFP^F46L to the C-terminus of full length M1 mAChR; expressed in transfected cells; host or cells: HEK293 cells stably expressing M1-cam5 (HEK293-M1-cam5); conditions: for maximal FRET decrease: maximally effective concentration (MCh 300 µM, arecoline 300 µM, pilocarpine 300 µM, 77-LH-28-1 10 µM, AC-42 30 µM), room temperature
# Experimental: The experiments were performed at room temperature.
# We also assessed the kinetics of MCh-mediated receptor conformational change with time-resolved determinations of the FRET signal recorded from single cells on activation of M1-cam5 mAChR with various concentrations of MCh.
# M1-cam5 mAChR [2] = target: T2, M1-cam5 mAChR; experiment: Receptor internalization by confocal microscopy in HEK293-M1-cam5 cells; type: cell-based; parameters: addition of the EYFP^F46L to the C-terminus of full length M1 mAChR; expressed in transfected cells; host or cells: HEK293 cells stably expressing M1-cam5 (HEK293-M1-cam5)
# Experimental: Cells were seeded on coverslips coated with 100 µg/mL poly-D-lysine in PBS. When 70–80% confluency was reached, in some instances the cells were treated with various concentrations of agonists at 37°C and fixed with 4% paraformaldehyde. After a 5 min wash with PBS, the slides were mounted with Slowfade Gold/DAPI (Invitrogen, UK). The slides were examined using an Olympus FV500 confocal microscope, ECFPc and EYFP^F46L were excited via the 458 nm and 515 nm line of the argon laser and emissions were then collected at 480–495 nm and 535–565 nm, respectively. Optical sections (0.5 µm) were taken, and representative sections corresponding to the middle of the cells are presented. For each treatment, between 20 and 30 individual cells in three random fields of view were selected and examined. Fluorescence intensity of specific regions of interest (longitudinal axis) was quantified by using the Measure function of Image J software developed at the National Institutes of Health (http://rsb.info.nih.gov/ij/), as previously described. Briefly, relative quantification of intracellular (internalized) M1-cam5 was determined by measuring the amount of total fluorescence along the longitudinal axis corresponding to the intracellular space (average 4–18 ìm) excluding nucleus. Intracellular fluorescence in cells not treated with the agonist was considered to be basal fluorescence (assigned the value of 1). All other data are normalized to this basal fluorescence level.
# Figure 4 Internalization characteristics of the M1-cam5 mAChR stably expressed in HEK293 cells. HEK293-M1-cam5 cells were treated with various concentration of MCh for 45 min (to assess the concentration-dependency of receptor internalization), or with MCh (300 µM) for 0–60 min (to assess the time-dependency of receptor internalization). Cellular distributions of M1-cam5 mAChR were monitored by confocal microscopy. For quantification of intracellular fluorescence at least […] of view were examined as described in the Methods section. […]
# M1-cam5 = target: T3, M1-cam5 (Mus musculus, UniProt P12657, INS361[…]); experiment: eGFP-PH biosensor translocation (phosphoinositide turnover) in HEK293-M1-cam5 cells; type: cell-based; conditions: 10 µM for 60 s
# T3 construct: addition of the EYFP^F46L to the C-terminus of full length M1 mAChR; expressed in transfected cells; host or cells: HEK293 cells stably expressing M1-cam5 (HEK293-M1-cam5)
# [3] = target: M1-3ic-ECFPc and M1-cterm-EYFP^F46L (Mus musculus, UniProt P12657, INS361[…]); experiment: FRET control with coexpressed M1-3ic-ECFPc and M1-cterm-EYFPF46L in HEK293 cells; conditions: 300 µM
# Experimental: Briefly, HEK293 cells grown on coverslips were mounted on a Nikon Eclipse TE2000-S inverted microscope (Nikon) using an “Attofluor” cell chamber (Molecular Probes, Leiden, The Netherlands) and continuously superfused with HBS (150 mM NaCl, 10 mM HEPES, 10 mM glucose, 2.5 mM KCl, 4 mM CaCl2, 2 mM MgCl2, pH 7.4). Cells were observed using an oil immersion 63× lens, a polychrome V (Till Photonics, Gräfelfing, Germany) for excitation, and a dual emission photometric system. In order to minimize photobleaching, illumination time was set to 10–40 ms, applied with a frequency of 10 Hz. Fluorescence was measured at 535±15 nm (F535) and 480±20 nm (F480) (beam splitter DCLP 505 nm, Chroma Technology, Rockingham, VT, USA) on excitation at 436±10 nm (beam splitter DCLP 460 nm, Chroma Technology). The signals were detected by avalanche photodiodes and digitized using an analog/digital converter (Digidata 1322A, Axon Instruments, Union City, CA, USA) and stored on a PC using Axoscope software (Axon Instruments). The experiments were performed at room temperature.
# FRET was assessed using the ratio of normalized EYFP^F46L/ECFPc fluorescence intensities.
# HEK-293 cells were transiently transfected with either (A) M1-cam5 or (B) two separate plasmids, one encoding M1 with a C-terminal YFP^F46L tag and the other encoding M1 with an ECFPc tag at the same third intracellular loop location as M1-cam5. […]
# M3 mAChRs = experiment: Total [3H]inositol phosphate accumulation in wild-type HEK293 cells; type: cell-based, human; conditions: Li+ (10 mM)
# Experimental: (§1) HEK293-M1-cam5 and HEK293 cells were seeded at 100,000 cells/well in 24-well plates and incubated in fresh medium containing 2.5 µCi/mL [^3H]inositol for 48 h. The assay was performed as previously described.
# As an index of PLC activation, agonist-stimulated accumulation of total [^3H]IPx was assessed in the presence of Li^+ (10 mM).
# M1-cam5 mAChR [4] = target: T2, M1-cam5 mAChR; experiment: Total [3H]inositol phosphate accumulation in HEK293-M1-cam5 cells; type: cell-based; parameters: addition of the EYFP^F46L to the C-terminus of full length M1 mAChR; expressed in transfected cells; host or cells: HEK293 cells stably expressing M1-cam5 (HEK293-M1-cam5); conditions: in presence of Li+ (10 mM)
# Experimental: as §1
# As an index of PLC activation, agonist-stimulated accumulation of total [^3H]IPx was assessed in the presence of Li^+ (10 mM). […] On removal of agonist, the eGFP-PH biosensor translocated back to the plasma membrane.
# M1-cam5 mAChR [5] = target: T2, M1-cam5 mAChR; conditions: 1–300 µM for 5 min, serum-starved HEK293-M1-cam5 cells
# Experimental: Proteins were visualized using ECL reagent from GE Healthcare (Chalfont St. Giles, UK).
# Phosphoinositide turnover was assessed by monitoring the translocation of the eGFP-PH probe from the plasma membrane to the cytoplasm on addition of MCh (10 µM) for 60 s, followed by washout.
SMILES,"pK B (apparent binding affinity, −log K B) (M1-cam5 AChR)",maximal FRET decrease (M1-cam5 mAChR [1]) [%],M1-cam5 mAChR internalization (endocytosis) (M1-cam5 mAChR [2]),other results
CCCCC1CCN(CCCN2C(=O)CCc3ccccc32)CC1 [77-LH-28-1],6.17±0.12,6.4±0.4,,
"C[N+](C)(C)CC#CCN1CCCC1=O [oxo-M, oxotremorine-M]",5.94±0.10,,resulted in receptor endocytosis,
"CC(=O)OC(C)C[N+](C)(C)C (stereo not drawn) [MCh, methacholine]",,9.8±0.4,internalized in response to MCh in a concentration- and time-dependent manner,"translocation of the eGFP-PH biosensor from the plasma membrane to the cytoplasm (M1-cam5): detectable translocation; FRET response in cells coexpressing singly tagged receptors [3]: no FRET response; EC50 right-shift of [3H]IPx accumulation relative to HEK293-M1-cam5 cells (M3 mAChRs): > 10 fold; [3H]IPx accumulation, maximal stimulation (M1-cam5 mAChR [4]; basal 3,781±1,792): 41,954±1,030 d.p.m. mg^−1 protein; increase in [3H]IPx accumulation, maximal stimulation (M1-cam5 mAChR [4]; over basal): 11 fold; ERK1/2 phosphorylation (M1-cam5 mAChR [5]): rapid increase"
CN1[C@@H]2CC[C@H]1C[C@@H](OC(=O)C(CO)c1ccccc1)C2 (stereo partly drawn) [atropine],,,,effect alone on basal M1-cam5 FRET signal (M1-cam5 mAChR [1]): no effect; prevention of agonist-induced FRET change by pre-addition (M1-cam5 mAChR [1]): completely prevented; reversal of agonist-induced FRET change (M1-cam5 mAChR [1]): reversed
CCCCC1CCN(CCCC(=O)c2ccccc2C)CC1 [AC-42],5.11±0.11,5.1±0.3,resulted in receptor endocytosis,
